The values that follow come from article PMC5047049, “Characterization of a functional C3A liver spheroid model” (Toxicology Research, 2016).

In assay [1] the test system is MRP2 and Pgp transporters. Nature of the assay: Analysis of transporter function with CMFDA substrate in 2D monolayer C3A cells. The class given is cell-based. As to conditions: 5 μM CMFDA, 30 min. As to the method:
(§1) Spheroids and monolayers were incubated with 5 μM 5-chloromethylfluorescein diacetate (CMFDA-Life Technologies) with or without 25 μM MK571 (MRP inhibitor) and 12.5 μM PSC833 (Pgp inhibitor) in EMEM for 30 min at 37 °C. CMFDA is membrane permeable until it enters cell and is converted to glutathione-methylfluorescein (GSMF), a cell impermeable substrate for MRP and Pgp.[40] Cells and spheroids were washed in PBS and prepared for immunofluorescence as described above.

Assay [2] relates to MRP2 and Pgp transporters. Description: Analysis of transporter function with CMFDA substrate in C3A spheroids. The class given is cell-based. As to conditions: 30 min. As to the method: as §1
Assay [3] relates to C3A spheroids. Nature of the assay: Toxicological analysis: Cell Titer-Glo cell viability in C3A spheroids, 4 days with repeat dosing. Format: cell-based. The procedure: Spheroids were created using the liquid overlay technique as previously described.[38] Briefly, 100 μl of sterile 1.5% Agarose (high gelling temperature-Sigma Aldrich) in EMEM was added per well to flat-bottomed 96-well cell culture plates to form a low-adherence surface. Additionally Ultra Low Adherence plates (ULA-Corning) were used as a comparison. C3A cells were seeded at 500, 750, 1000, 1500, 2000 or 2500 cells per well in 100 μl media and left for 72 hours to form spheroids. Media was renewed twice weekly and spheroids were cultured for up to 32 days. Images of spheroids in culture were taken by phase-contrast microscopy through 4× objective and maximum spheroid diameter measured. Spheroids were treated at day 3 of culture with hepatotoxic compounds acetaminophen, fialuridine, diclofenac and trovafloxacin diluted in 0.5% DMSO in EMEM for 4 days with repeat dosing on day 2. Monolayer C3A cells were treated with compounds for 24 hours. Cell viability was analysed using Cell Titer-Glo assay (Promega) according to the manufacturer's instructions and plotted as a percentage of untreated control.

Assay [4] deals with C3A 2D monolayer. Description: Toxicological analysis: Cell Titer-Glo cell viability in C3A 2D monolayer, 24 hours. The class given is cell-based. As to the method:
C3A cells were maintained in EMEM (LGC Standards) supplemented with 10% FBS and 1% penicillin–streptomycin under standard cell culture conditions. For 2D monolayer experiments C3A cells were seeded and left to adhere for 24 hours and confirmed to be 100% confluent before analyses. Spheroids were treated at day 3 of culture with hepatotoxic compounds acetaminophen, fialuridine, diclofenac and trovafloxacin diluted in 0.5% DMSO in EMEM for 4 days with repeat dosing on day 2. Monolayer C3A cells were treated with compounds for 24 hours. Cell viability was analysed using Cell Titer-Glo assay (Promega) according to the manufacturer's instructions and plotted as a percentage of untreated control.

The subject of assay [5] is HepG2 monolayer cultures. Also on record: method as in PMID 9862754. As to conditions: cited from earlier work.
[6] abbreviates: Homo sapiens, spheroids from 1000 C3A cells, treated at day 3 for 4 days with repeat dosing on day 2, read-out: IC50 value in C3A spheroids.
The mark [7] stands for this setting: Homo sapiens, monolayer C3A cells treated for 24 hours, read-out: IC50 value in C3A 2D monolayer (converted).

Entries after “also recorded” stand apart in the source; their conditions may differ. Where two headings read alike, the source gives them in different places.

On to `CC(=O)Oc1ccc2c(c1)Oc1cc(OC(C)=O)ccc1C21OC(=O)c2cc(CCl)ccc21` [CMFDA, 5-chloromethylfluorescein diacetate], for which the “CMFDA localisation in 2D monolayer” value in assay [1] is listed as “retained CMFDA (green) within the cell cytoplasm”. In addition, the “CMFDA localisation in spheroids” value in assay [2] (5 μM CMFDA, C3A spheroids) is “accumulation and co-localisation of the compound within secondary canalicular-like structures; also recorded: accumulation of CMFDA in the bile canalicular structures”. The “CMFDA localisation in spheroids with MRP and Pgp transporters blocked” value in assay [2] (with 25 μM MK571 (MRP inhibitor) and 12.5 μM PSC833 (Pgp inhibitor)) is “retained in the cell cytoplasm”.
Take `O=C(O)Cc1ccccc1Nc1c(Cl)cccc1Cl` [Diclofenac]: the IC50 in assay [3] (setting [6]) was 295 µM; in assay [5], approximately 763 µM. In addition, the “IC50 value in C3A 2D monolayer” value in assay [4] (monolayer C3A cells treated for 24 hours) is recorded as “Non toxic”; in assay [4] (monolayer C3A cells treated for 24 hours, listed as diclofenac), “did not have a toxic response at the concentrations used”.
In the case of `O=c1[nH]c(=O)n([C@@H]2O[C@H](CO)[C@@H](O)[C@@H]2F)cc1I` [Fialuridine], the results for the IC50 in assay [3] (setting [6]) and in assay [4] (setting [7]) were 206 µM and 380 µM, respectively.
As for `CC(=O)Nc1ccc(O)cc1` [Paracetamol], the IC50 in assay [3] (96 h, C3A spheroids, 4 days repeat dosing, read-out: IC50 in spheroids) is 7200 µM; in assay [3] (setting [6]), 7210 µM; in assay [4] (C3A monolayer, 24 hours, read-out: IC50 in monolayer culture) it was 33800 µM; in assay [4] (setting [7]) it was 33800 µM.
As to `N[C@@H]1[C@H]2CN(c3nc4c(cc3F)c(=O)c(C(=O)O)cn4-c3ccc(F)cc3F)C[C@@H]12` [Trovafloxacin], the values for the IC50 in assay [3] (setting [6]) and in assay [4] (setting [7]) were 65 µM and 440 µM, respectively.
